Assays:
[1] = DRUGMATRIX: GABAA, Muscimol, Central radioligand binding (ligand: [3H] Muscimol); type: cell membranes, Rattus norvegicus, Wistar, Brain, Membrane; details: Not Active = under 50% inhibition at 10 µM
[2] = target: T1, Muscarinic acetylcholine receptor M5 (Homo sapiens, UniProt P08912); type: cell membranes, Membrane; details: cho-k1; note: in other assays of this panel Not Active means under 50% inhibition at 10 µM
T1 sequence (P08912 whole entry): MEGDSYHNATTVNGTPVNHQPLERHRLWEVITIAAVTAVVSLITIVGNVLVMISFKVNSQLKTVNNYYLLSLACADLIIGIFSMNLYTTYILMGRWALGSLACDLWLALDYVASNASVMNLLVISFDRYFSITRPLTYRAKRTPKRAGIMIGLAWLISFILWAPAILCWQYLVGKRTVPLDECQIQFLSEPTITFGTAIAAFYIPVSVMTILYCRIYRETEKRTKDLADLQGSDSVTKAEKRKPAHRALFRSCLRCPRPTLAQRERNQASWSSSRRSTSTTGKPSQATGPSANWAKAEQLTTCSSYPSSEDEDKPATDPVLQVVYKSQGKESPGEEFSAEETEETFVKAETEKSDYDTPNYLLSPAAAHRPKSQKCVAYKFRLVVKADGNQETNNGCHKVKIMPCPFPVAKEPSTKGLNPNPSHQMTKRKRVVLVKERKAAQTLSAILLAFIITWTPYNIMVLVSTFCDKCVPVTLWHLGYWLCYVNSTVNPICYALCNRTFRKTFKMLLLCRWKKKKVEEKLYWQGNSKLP

B2 bradykinin receptor = target: T2, B2 bradykinin receptor (Homo sapiens, UniProt P30411); type: cell membranes, Membrane; details: chem-1; note: in other assays of this panel Not Active means under 50% inhibition at 10 µM
T2 sequence (P30411 whole entry): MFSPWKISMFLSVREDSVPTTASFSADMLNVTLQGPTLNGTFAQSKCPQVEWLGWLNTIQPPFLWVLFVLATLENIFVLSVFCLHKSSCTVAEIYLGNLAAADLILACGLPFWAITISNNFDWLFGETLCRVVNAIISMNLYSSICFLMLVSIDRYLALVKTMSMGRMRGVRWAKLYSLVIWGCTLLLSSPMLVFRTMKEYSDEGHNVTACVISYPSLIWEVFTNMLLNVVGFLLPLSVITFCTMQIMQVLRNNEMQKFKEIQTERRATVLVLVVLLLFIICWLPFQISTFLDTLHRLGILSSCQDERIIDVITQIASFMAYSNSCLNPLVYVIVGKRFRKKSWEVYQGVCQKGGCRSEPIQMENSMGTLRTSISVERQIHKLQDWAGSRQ

Cytochrome P450 1A2 = target: T3, Cytochrome P450 1A2 (Homo sapiens, UniProt P05177); details: bti-tn-5b1-4; note: in other assays of this panel Not Active means under 50% inhibition at 10 µM
T3 sequence (P05177 whole entry): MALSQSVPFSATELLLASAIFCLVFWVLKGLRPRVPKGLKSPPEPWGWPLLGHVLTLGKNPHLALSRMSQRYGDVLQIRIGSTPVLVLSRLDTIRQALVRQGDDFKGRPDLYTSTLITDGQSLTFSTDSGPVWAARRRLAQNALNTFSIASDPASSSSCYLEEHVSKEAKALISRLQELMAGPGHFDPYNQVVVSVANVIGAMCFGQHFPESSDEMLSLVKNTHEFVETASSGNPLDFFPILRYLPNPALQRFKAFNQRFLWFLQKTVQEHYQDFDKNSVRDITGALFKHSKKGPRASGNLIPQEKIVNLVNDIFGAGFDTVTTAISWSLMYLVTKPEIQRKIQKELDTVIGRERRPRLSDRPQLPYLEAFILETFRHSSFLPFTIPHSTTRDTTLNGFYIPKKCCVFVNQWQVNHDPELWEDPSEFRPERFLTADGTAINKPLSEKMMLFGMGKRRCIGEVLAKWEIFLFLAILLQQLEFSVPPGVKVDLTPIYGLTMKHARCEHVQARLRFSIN

[3] = target: T4, Nitric oxide synthase, inducible (Mus musculus, UniProt P29477); design: species or system Escherichia coli;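 note: inhibition of iNOS enzyme activity measured with L-arginine as substrate; in other assays of this panel Not Active means under 50% inhibition at 10 µM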
T4 sequence (P29477 whole entry): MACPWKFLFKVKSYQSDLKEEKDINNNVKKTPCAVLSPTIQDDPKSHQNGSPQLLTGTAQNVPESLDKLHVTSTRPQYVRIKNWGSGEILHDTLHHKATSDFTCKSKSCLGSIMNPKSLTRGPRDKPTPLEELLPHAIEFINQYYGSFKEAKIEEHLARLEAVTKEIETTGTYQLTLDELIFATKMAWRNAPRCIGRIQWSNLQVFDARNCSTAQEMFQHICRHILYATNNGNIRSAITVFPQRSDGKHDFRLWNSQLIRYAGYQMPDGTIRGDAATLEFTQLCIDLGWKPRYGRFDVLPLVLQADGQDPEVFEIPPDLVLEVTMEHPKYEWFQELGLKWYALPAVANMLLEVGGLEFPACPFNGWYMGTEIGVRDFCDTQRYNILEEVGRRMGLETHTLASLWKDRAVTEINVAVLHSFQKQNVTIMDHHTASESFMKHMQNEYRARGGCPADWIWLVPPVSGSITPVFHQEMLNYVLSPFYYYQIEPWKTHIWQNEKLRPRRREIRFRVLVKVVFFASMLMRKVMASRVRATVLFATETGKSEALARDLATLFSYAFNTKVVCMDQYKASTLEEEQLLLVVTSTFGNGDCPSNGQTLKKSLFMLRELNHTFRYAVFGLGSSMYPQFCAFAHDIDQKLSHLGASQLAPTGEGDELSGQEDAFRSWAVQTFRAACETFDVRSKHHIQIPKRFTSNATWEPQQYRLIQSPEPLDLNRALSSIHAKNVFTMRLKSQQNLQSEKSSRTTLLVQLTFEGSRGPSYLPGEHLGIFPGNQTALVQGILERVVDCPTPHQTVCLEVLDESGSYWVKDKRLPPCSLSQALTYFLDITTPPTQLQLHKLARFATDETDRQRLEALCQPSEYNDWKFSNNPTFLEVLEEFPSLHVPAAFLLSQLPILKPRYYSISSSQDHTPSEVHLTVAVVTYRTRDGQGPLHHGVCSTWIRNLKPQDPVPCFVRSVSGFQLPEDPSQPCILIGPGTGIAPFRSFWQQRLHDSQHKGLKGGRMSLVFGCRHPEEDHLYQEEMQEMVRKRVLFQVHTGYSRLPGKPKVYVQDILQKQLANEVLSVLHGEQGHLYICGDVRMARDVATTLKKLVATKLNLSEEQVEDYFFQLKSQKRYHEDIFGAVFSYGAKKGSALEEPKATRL

[4] = DRUGMATRIX: Serotonin (5-Hydroxytryptamine) 5-HT3 radioligand binding (ligand: [3H] GR-65630); type: cell membranes, Membrane; details: hek293; Not Active = under 50% inhibition at 10 µM
[5] = DRUGMATRIX: Purinergic P2X radioligand binding (ligand: [3H] alpha, beta-Methylene-ATP); type: cell membranes, Oryctolagus cuniculus, New Zealand albino, Urinary bladder, Membrane; details: Not Active = under 50% inhibition at 10 µM
Acetylcholinesterase = Acetylcholinesterase (Homo sapiens, UniProt P22303); assay: DRUGMATRIX: Acetylcholinesterase enzyme inhibition (substrate: acetylthiocholine); type: cell-based, HEK293; details: hek293; Not Active = under 50% inhibition at 10 µM
Sequence of Acetylcholinesterase (P22303 whole entry): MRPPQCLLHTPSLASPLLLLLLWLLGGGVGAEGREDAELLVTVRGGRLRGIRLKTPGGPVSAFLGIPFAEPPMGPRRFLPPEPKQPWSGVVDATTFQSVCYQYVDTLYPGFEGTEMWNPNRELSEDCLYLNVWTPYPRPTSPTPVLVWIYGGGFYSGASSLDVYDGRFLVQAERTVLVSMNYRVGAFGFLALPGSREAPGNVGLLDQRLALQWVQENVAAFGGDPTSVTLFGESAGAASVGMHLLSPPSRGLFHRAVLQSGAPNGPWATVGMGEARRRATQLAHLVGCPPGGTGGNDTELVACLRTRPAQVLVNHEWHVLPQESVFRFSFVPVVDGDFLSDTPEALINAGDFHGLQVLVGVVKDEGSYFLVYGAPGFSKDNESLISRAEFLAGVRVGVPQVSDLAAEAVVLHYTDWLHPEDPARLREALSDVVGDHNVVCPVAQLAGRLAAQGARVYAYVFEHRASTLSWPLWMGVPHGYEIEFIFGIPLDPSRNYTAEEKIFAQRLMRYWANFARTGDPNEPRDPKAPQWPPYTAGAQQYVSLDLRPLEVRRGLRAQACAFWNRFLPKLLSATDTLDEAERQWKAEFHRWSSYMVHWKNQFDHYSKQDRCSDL

CCCCC1C(=O)N(c2ccccc2)N(c2ccccc2)C1=O [PHENYLBUTAZONE]
Not Active: IC50 [1] | Ki [1] | IC50 [2] | IC50 (B2 bradykinin receptor) | IC50 (Cytochrome P450 1A2) | Ki (Cytochrome P450 1A2) | IC50 [3] | IC50 [4] | Ki [4] | IC50 [5] | Ki [5] | IC50 (Acetylcholinesterase)

Cc1cccc(Nc2cc(Cl)nc(SCC(=O)O)n2)c1C [PIRINIXIC ACID]
Not Active: IC50 [1] | Ki [1] | IC50 [2] | IC50 (B2 bradykinin receptor) | IC50 (Cytochrome P450 1A2) | Ki (Cytochrome P450 1A2) | IC50 [3] | IC50 [4] | Ki [4] | IC50 [5] | Ki [5] | IC50 (Acetylcholinesterase)

CC[C@H](C)C(=O)O[C@H]1C[C@H](O)C=C2C=C[C@H](C)[C@H](CC[C@@H](O)C[C@@H](O)CC(=O)O)[C@H]21 [PRAVASTATIN]
Not Active: IC50 [1] | Ki [1] | IC50 [2] | IC50 (B2 bradykinin receptor) | IC50 (Cytochrome P450 1A2) | Ki (Cytochrome P450 1A2) | IC50 [3] | IC50 [4] | Ki [4] | IC50 [5] | Ki [5] | IC50 (Acetylcholinesterase)

CC(C)(Sc1cc(C(C)(C)C)c(O)c(C(C)(C)C)c1)Sc1cc(C(C)(C)C)c(O)c(C(C)(C)C)c1 [PROBUCOL]
Not Active: IC50 [1] | Ki [1] | IC50 [2] | IC50 (B2 bradykinin receptor) | IC50 (Cytochrome P450 1A2) | Ki (Cytochrome P450 1A2) | IC50 [3] | IC50 [4] | Ki [4] | IC50 [5] | Ki [5] | IC50 (Acetylcholinesterase)

COBALT(II) ACETYLACETONATE
Not Active: IC50 [1] | Ki [1] | IC50 [2] | Ki [2] | IC50 (B2 bradykinin receptor) | Ki (B2 bradykinin receptor) | IC50 (Cytochrome P450 1A2) | Ki (Cytochrome P450 1A2) | IC50 [3] | Ki [3] | IC50 [4] | Ki [4] | IC50 [5] | Ki [5] | IC50 (Acetylcholinesterase) | Ki (Acetylcholinesterase)

INSULIN HUMAN
Not Active: IC50 [1] | Ki [1] | IC50 [2] | Ki [2] | IC50 (B2 bradykinin receptor) | Ki (B2 bradykinin receptor) | IC50 (Cytochrome P450 1A2) | Ki (Cytochrome P450 1A2) | IC50 [3] | Ki [3] | IC50 [4] | Ki [4] | IC50 [5] | Ki [5] | IC50 (Acetylcholinesterase) | Ki (Acetylcholinesterase)

POLYVINYL ALCOHOL
Not Active: IC50 [1] | Ki [1] | IC50 [2] | Ki [2] | IC50 (B2 bradykinin receptor) | Ki (B2 bradykinin receptor) | IC50 (Cytochrome P450 1A2) | Ki (Cytochrome P450 1A2) | IC50 [3] | Ki [3] | IC50 [4] | Ki [4] | IC50 [5] | Ki [5] | IC50 (Acetylcholinesterase) | Ki (Acetylcholinesterase)

— ChEMBL document CHEMBL1909046, “DrugMatrix in vitro pharmacology data”
